tested on: TNFα; assay: In vitro assay: TNFα ELISA of supernatants of LPS-stimulated human PBMC; type: cell-based; details: Homo sapiens, PBMC, human PBMC pretreated with drug 60 min, stimulated with LPS (E. coli O55:B5) 100 ng/mL, overnight culture, TNFα in supernatant by ELISA; read-out: 50% Inhibition of TNFα level (IC50)
Experimental: Enzyme-linked immunosorbent assays (ELISA) for TNFα can be performed in a conventional manner (Blood, 75, 40-47 (1990)). Human PBMC are isolated from heparinized venous blood obtained from healthy volunteers by Ficoll-Hypaque density centrifugation. The cells are cultured in RPMI1640 medium supplemented with 5% heat-inactivated fetal calf serum and antibiotics. PBMC (5×10E5 cells/mL) in 0.2 mL aliquot are pretreated with drugs in DMSO for 60 min at 37° C. in 96 well round-bottomed tissue culture plates. Thereafter, PBMC in the presence or absence of compound are stimulated with 1 mg/mL LPS from E. coli O55:B5 at a final concentration of 100 ng/mL. After overnight culture, the supernatants are harvested and assayed immediately for TNFα levels from each well. The concentration of TNFα in the supernatant is determined by human TNFα ELISA Kit according to the manufacture's directions.
Active compounds are characterized by the concentration of the compound that caused 50% inhibition of TNFα level (IC50).

With `Cc1c(Cc2ccncc2)c(=O)oc2cc(OC(=O)N(C)C)c(Cl)cc12` [Example 11, dimethyl carbamic acid 2-oxo-2H-3-(p-pyridinylmethyl)-4-methyl-6-chloro-1-benzopyran-7-yl ester] as the compound, how does the IC50 read?
Its IC50 is 0.13 µM.

For `Cc1c(Cc2ccccc2)c(=O)oc2cc(OC(=O)N(C)C)c(Cl)cc12` [Example 2, dimethyl carbamic acid 2-oxo-2H-3-benzyl-4-methyl-6-chloro-1-benzopyran-7-yl ester], which IC50 is on record?
The IC50 was 0.09 µM.

Which IC50 does the source give for `Cc1c(Cc2ccccc2)c(=O)oc2cc(OC(=O)N(C)C)ccc12` [Example 1, dimethyl carbamic acid 2-oxo-2H-3-benzyl-4-methyl-1-benzopyran-7-yl ester] here?
The IC50 was 0.36 µM.

For `CCOC(=O)CC(=O)Nc1cccc(Cc2c(C)c3ccc(Oc4ncccn4)cc3oc2=O)c1` [Example 19, 2-oxo-2H-3-(m-ethoxycarbonyl-acetylaminobenzyl)-4-methyl-7-(pyrimidin-2-yloxyl)-1-benzopyrane], which IC50 is on record?
Its IC50 is under 0.6 µM.

With `Cc1c(Cc2ccccc2)c(=O)oc2cc(OC(=O)N(C)C)c(C#N)cc12` [Example 9, dimethyl carbamic acid 2-oxo-2H-3-benzyl-4-methyl-6-cyano-1-benzopyran-7-yl ester] as the compound, how does the IC50 read?
The IC50 was 0.85 µM.

With `Cc1c(Cc2ccccc2)c(=O)oc2cc(SC(=O)N(C)C)ccc12` [Example 13, dimethyl thiocarbamic acid S-2-oxo-2H-3-benzyl-4-methyl-1-benzopyran-7-yl ester] as the compound, how does the IC50 read?
Its IC50 is 0.68 µM.

`Cc1c(Cc2ccccc2)c(=O)oc2cc(Oc3nccs3)ccc12` [Example 21, 2-oxo-3-benzyl-4-methyl-7-(thiazol-2-yloxyl)-2H-1-benzopyrane] was tested. Which IC50 did it give?
The IC50 was 9.1 µM.

Which IC50 does the source give for `C=Cc1ccc2c(C)c(Cc3ccccc3)c(=O)oc2c1` [Example 23, 2-oxo-3-benzyl-4-methyl-7-vinyl-2H-1-benzopyrane] here?
The IC50 was 10.3 µM.

How did the IC50 turn out when `Cc1c(Cc2ccccc2)c(=O)oc2cc(Oc3ncccn3)c(Cl)cc12` [Example 16, 2-oxo-2H-3-benzyl-4-methyl-6-chloro-7-(pyrimidin-2-yloxyl)-1-benzopyrane] was run?
Its IC50 is 6.8 µM.

`CCCc1c(Cc2ccc(F)cc2)c(=O)oc2cc(OC(=O)N(C)C)ccc12` [Example 7, dimethyl carbamic acid 2-oxo-2H-3-(4-fluorobenzyl)-4-n-propyl-1-benzopyran-7-yl ester] was tested. Which IC50 did it give?
Its IC50 is 1.17 µM.

With `CC(=O)Nc1cccc(Cc2c(C)c3cc(Cl)c(OC(=O)N(C)C)cc3oc2=O)c1` [Example 12, dimethyl carbamic acid 2-oxo-2H-3-(m-acetylamidobenzyl)-4-methyl-6-chloro1-benzopyran-7-yl ester] as the compound, how does the IC50 read?
The IC50 was under 0.6 µM.

Which IC50 does the source give for `Cc1c(Cc2cccnc2)c(=O)oc2cc(Oc3ncccn3)c(Cl)cc12` [Example 17, 2-oxo-2H-3-(3-pyridylmethyl)-4-methyl-6-chloro-7-(pyrimidin-2-yloxyl)-1-benzopyrane] here?
Its IC50 is 50 µM.

same assay, conditions: human PBMC pretreated with drug 60 min, stimulated with LPS (E. coli O55:B5) 100 ng/mL, overnight culture, TNFα in supernatant by ELISA; listed as 14-25; read-out: 50% Inhibition of TNFα level (IC50)

With `CC(=O)Nc1cccc(Cc2c(C)c3cc(Cl)c(OC(=O)N(C)C)cc3oc2=O)c1` [Example 12, dimethyl carbamic acid 2-oxo-2H-3-(m-acetylamidobenzyl)-4-methyl-6-chloro1-benzopyran-7-yl ester] as the compound, how does the IC50 read?
Its IC50 is 0.31 µM.

same assay, conditions: human PBMC pretreated with drug 60 min, stimulated with LPS (E. coli O55:B5) 100 ng/mL, overnight culture, TNFα in supernatant by ELISA; read-out: 50% Inhibition of TNFα level (IC50)

Which IC50 does the source give for `CCCS(=O)(=O)Nc1cccc(Cc2c(C)c3cc(Cl)c(Oc4ncccn4)cc3oc2=O)c1` [Example 20-46] here?
Its IC50 is 0.96 µM.

How did the IC50 turn out when `Cc1c(Cc2cccc(N(C)C)c2)c(=O)oc2cc(Oc3ncccn3)c(Cl)cc12` [Example 20-27] was run?
Its IC50 is 5.1 µM.

Which IC50 does the source give for `Cc1c(Cc2cccc([N+](=O)[O-])c2)c(=O)oc2cc(Oc3nccs3)cc(F)c12` [Example 22-3] here?
Its IC50 is 10.1 µM.

For `Cc1c(Cc2cccc(NC(=O)CNC(=O)OCc3ccccc3)c2)c(=O)oc2cc(Oc3ncccn3)c(Cl)cc12` [Example 20-31], which IC50 is on record?
The IC50 was 9.8 µM.

`COc1ccc(Cc2c(C)c3ccc(OC(=O)N(C)C)cc3oc2=O)cc1` [Example 14-46] was tested. Which IC50 did it give?
Its IC50 is 5.6 µM.

`Cc1c(Cc2ccncc2)c(=O)oc2cc(Oc3ncccn3)c(Cl)cc12` [Example 20-13] was tested. Which IC50 did it give?
The IC50 was 7.5 µM.

How did the IC50 turn out when `Cc1c(Cc2ccccc2)c(=O)oc2cc(OC(=O)N(C)C)c(C=O)cc12` [Example 14-16] was run?
Its IC50 is 9.6 µM.

For `Cc1c(Cc2ccccc2)c(=O)oc2cc(C=O)ccc12` [Example 26-1], which IC50 is on record?
The IC50 was 6.3 µM.

`CCOC(=O)CC(=O)Nc1cccc(Cc2c(C)c3ccc(Oc4nccs4)cc3oc2=O)c1` [Example 22-6] was tested. Which IC50 did it give?
The IC50 was 0.25 µM.

`Cc1c(Cc2cccc(N)c2)c(=O)oc2cc(Oc3ncccn3)ccc12` [Example 20-19] was tested. Which IC50 did it give?
The IC50 was 7.2 µM.

For `CC(=O)Nc1cccc(Cc2c(C)c3c(F)cc(OC(=O)N(C)C)cc3oc2=O)c1` [Example 14-7], which IC50 is on record?
The IC50 was 1 µM.

For `Cc1c(Cc2ccccc2)c(=O)oc2cc(OC(=O)N(C)C)c(C#C[Si](C)(C)C)cc12` [Example 14-18], which IC50 is on record?
The IC50 was 3.9 µM.

Which IC50 does the source give for `CC(=O)Nc1ccc(Cc2c(C)c3ccc(OC(=O)N(C)C)cc3oc2=O)cc1` [Example 14-61] here?
The IC50 was 5.8 µM.

How did the IC50 turn out when `Cc1c(Cc2cccnc2)c(=O)oc2c(C)c(OC(=O)N(C)C)ccc12` [Example 14-33] was run?
The IC50 was 8.4 µM.

For `CC(=O)Nc1cccc(Cc2c(C)c3ccc(Oc4ncccn4)cc3oc2=O)c1` [Example 20-20], which IC50 is on record?
Its IC50 is 6.6 µM.

How did the IC50 turn out when `Cc1c(Cc2ccncc2)c(=O)oc2cc(OC(=O)N(C)C)ccc12` [Example 14-32] was run?
The IC50 was 1.3 µM.

For `Cc1c(Cc2ccccc2)c(=O)oc2cc(Oc3nccs3)ccc12` [Example 21, 2-oxo-3-benzyl-4-methyl-7-(thiazol-2-yloxyl)-2H-1-benzopyrane], which IC50 is on record?
Its IC50 is 10.5 µM.

For `COc1ccccc1Cc1c(C)c2ccc(OC(=O)N(C)C)cc2oc1=O` [Example 14-44], which IC50 is on record?
The IC50 was 7.5 µM.

With `Cc1c(Cc2cccnc2)c(=O)oc2cc(OC(=O)N(C)C)c(Cl)cc12` [Example 14-35] as the compound, how does the IC50 read?
Its IC50 is 0.45 µM.

With `CC(=O)Nc1cccc(Cc2c(C)c3c(Cl)cc(Oc4ncccn4)cc3oc2=O)c1` [Example 20-37] as the compound, how does the IC50 read?
The IC50 was 11.8 µM.

How did the IC50 turn out when `Cc1c(Cc2ccccc2)c(=O)oc2cc(OC(=O)N(C)C)c(I)cc12` [Example 14-12] was run?
Its IC50 is 0.06 µM.

With `Cc1c(Cc2ccccc2)c(=O)oc2cc(Oc3ncccn3)cc(F)c12` [Example 20-14] as the compound, how does the IC50 read?
The IC50 was 9.7 µM.

`CCc1c(Cc2ccncc2)c(=O)oc2cc(OC(=O)N(C)C)ccc12` [Example 14-80] was tested. Which IC50 did it give?
The IC50 was 2.4 µM.

`Cc1c(Cc2ccccc2[N+](=O)[O-])c(=O)oc2cc(OC(=O)N(C)C)c(Cl)cc12` [Example 14-21] was tested. Which IC50 did it give?
Its IC50 is 3 µM.

How did the IC50 turn out when `CCc1c(Cc2cccc(N)c2)c(=O)oc2cc(Oc3ncccn3)c(Cl)cc12` [Example 20-56] was run?
Its IC50 is 7.8 µM.

How did the IC50 turn out when `CCc1c(Cc2ccccc2)c(=O)oc2cc(OC(=O)N(C)C)c(Cl)cc12` [Example 14-74] was run?
The IC50 was 0.24 µM.

How did the IC50 turn out when `CCOC(=O)CC(=O)Nc1cccc(Cc2c(C)c3c(F)cc(Oc4ncccn4)cc3oc2=O)c1` [Example 20-40] was run?
Its IC50 is under 0.6 µM.

For `Cc1c(Cc2cccnc2)c(=O)oc2cc(OC(=O)N(C)C)ccc12` [Example 14-31], which IC50 is on record?
The IC50 was 2.2 µM.

How did the IC50 turn out when `Cc1c(Cc2ccccc2N)c(=O)oc2cc(OC(=O)N(C)C)ccc12` [Example 14-64] was run?
The IC50 was 2.1 µM.

`COc1cccc(Cc2c(C)c3ccc(OC(=O)N(C)C)cc3oc2=O)c1` [Example 14-45] was tested. Which IC50 did it give?
Its IC50 is 3.2 µM.

How did the IC50 turn out when `Cc1c(Cc2cccc(NC(=O)CC(=O)O)c2)c(=O)oc2cc(Oc3ncccn3)c(Cl)cc12` [Example 20-34] was run?
Its IC50 is 10.6 µM.

How did the IC50 turn out when `Cc1c(Cc2cccc(NC(=O)CCNC(=O)OCc3ccccc3)c2)c(=O)oc2cc(Oc3ncccn3)c(Cl)cc12` [Example 20-32] was run?
The IC50 was 11.4 µM.

`CCc1c(Cc2cccc(N)c2)c(=O)oc2cc(Oc3ncccn3)cc(F)c12` [Example 20-59] was tested. Which IC50 did it give?
Its IC50 is 5.9 µM.

How did the IC50 turn out when `CC(=O)Nc1cccc(Cc2c(C)c3cc(Cl)c(Oc4ncccn4)cc3oc2=O)c1` [Example 20-43] was run?
Its IC50 is 3.1 µM.

Which IC50 does the source give for `CCc1c(Cc2ccccc2)c(=O)oc2cc(Oc3ncccn3)c(Cl)cc12` [Example 20-50] here?
Its IC50 is 4.5 µM.

Which IC50 does the source give for `Cc1c(Cc2cccc(NS(=O)(=O)C(C)C)c2)c(=O)oc2cc(Oc3ncccn3)c(Cl)cc12` [Example 20-47] here?
Its IC50 is 0.31 µM.

With `CCc1c(Cc2cccc(NC(C)=O)c2)c(=O)oc2cc(Oc3ncccn3)ccc12` [Example 20-54] as the compound, how does the IC50 read?
Its IC50 is 6.7 µM.

With `Cc1c(Cc2ccc(N)cc2)c(=O)oc2cc(OC(=O)N(C)C)ccc12` [Example 14-66] as the compound, how does the IC50 read?
Its IC50 is 5.2 µM.

`CCOC(=O)CC(=O)Nc1cccc(Cc2c(C)c3cc(Cl)c(Oc4ncccn4)cc3oc2=O)c1` [Example 20-29] was tested. Which IC50 did it give?
The IC50 was under 0.6 µM.

Which IC50 does the source give for `Cc1c(Cc2cccc([N+](=O)[O-])c2)c(=O)oc2cc(OC(=O)N(C)C)ccc12` [Example 14-56] here?
The IC50 was 4.5 µM.

With `CCc1c(Cc2ccncc2)c(=O)oc2cc(OC(=O)N(C)C)c(Cl)cc12` [Example 14-81] as the compound, how does the IC50 read?
The IC50 was 0.34 µM.

How did the IC50 turn out when `Cc1c(Cc2cccc(N)c2)c(=O)oc2cc(OC(=O)N(C)C)c(Cl)cc12` [Example 14-24] was run?
Its IC50 is 0.46 µM.

From patent publication US7994318B2, “Coumarin derivatives useful as TNFα inhibitors” (Chugai Seiyaku Kabushiki Kaisha, priority 2000, dated 2011)
